Where “and” joins values, the source holds several entries; their conditions need not be identical. Identical values can stand only once.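 A five-concentration, 48-hour dose response in 96-well plates underlies each endpoint, interpolated linearly between surrounding concentrations. The concentration for 50% growth inhibition is given as GI50. The concentration for full growth arrest is given as TGI.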
What was measured:
Experiment in all cases: NCI anticancer screen, dose series, 48 h
COLO 205 colon = tested on: COLO 205 colon
MCF7 breast = tested on: MCF7 breast
RPMI-8226 leukemia = tested on: RPMI-8226 leukemia
OVCAR-5 ovarian = tested on: OVCAR-5 ovarian
NCI-H226 lung = tested on: NCI-H226 lung
SK-MEL-2 melanoma = tested on: SK-MEL-2 melanoma
IGROV1 ovarian = tested on: IGROV1 ovarian
LOX IMVI melanoma = tested on: LOX IMVI melanoma
HCT-116 colon = tested on: HCT-116 colon
T-47D breast = tested on: T-47D breast

SMILES | GI50 (COLO 205 colon) [µM] | TGI (COLO 205 colon) [µM] | GI50 (MCF7 breast) [µM] | TGI (MCF7 breast) [µM] | GI50 (RPMI-8226 leukemia) [nM] | TGI (RPMI-8226 leukemia) [µM] | GI50 (OVCAR-5 ovarian) [µM] | TGI (OVCAR-5 ovarian) [µM] | GI50 (NCI-H226 lung) [µM] | TGI (NCI-H226 lung) [µM] | GI50 (SK-MEL-2 melanoma) | TGI (SK-MEL-2 melanoma) | GI50 (IGROV1 ovarian) [nM] | TGI (IGROV1 ovarian) [µM] | GI50 (LOX IMVI melanoma) [µM] | TGI (LOX IMVI melanoma) [µM] | GI50 (HCT-116 colon) [nM] | TGI (HCT-116 colon) [µM] | GI50 (T-47D breast) | TGI (T-47D breast) [µM]
CN1CCN(Cc2ccc(NC(=O)c3[nH]ncc3Nc3ncnc4c3CCC4)cc2)CC1 | 0.475 | 2.25 | 0.372 | 11.1 | 2820 | 7.39 | 3.59 | 16.2 | 0.755 | 13 | 2.14 µM | 6.63 µM | 1450 | 14.6 | 0.817 | 3.1 | 454 | 11.4 | 3.72 µM | 22.7
Cn1c2ccccc2c2nnc(N/N=C/c3ccccn3)nc21 | 0.401 | 18.5 | 0.285 | 6.59 | 367 | 16.6 | 1.27 | > 72.4 | 0.337 | 5.36 | 0.953 µM | 16.9 µM | 440 | > 23.6 | 0.331 | 3.33 | 349 | > 38.4 | 0.392 µM | 10.8
O=c1[nH]nc2c3c(cccc13)NC(CN1Cc3ccccc3C1)=N2 | 4.09 | 89.7 | 3.82 | > 100 | 8170 | > 100 | 5.73 | > 100 | 30.3 | > 100 | > 100 µM | > 100 µM | 3870 | > 100 | 3.16 | > 100 | 6770 | > 100 | 5.27 µM | > 100
O=C1C(Cl)=C(N2CCOCC2)C(=O)c2ccccc21 | 14.2 | 27.8 | 3.49 | 17.9 | 2630 | 7.87 | 20.7 | 36.4 | 11.8 | 24.2 | 3.82 µM | 11.6 µM | 3330 | 6.74 | 3.01 | 13.6 | 1860 | 3.37 | 2.31 µM | 5.13
O=[N+]([O-])c1cc(Br)cc2c1[nH]c1ccc(Br)cc12 | 4.7 | > 100 | 6.34 | > 100 | 25400 | > 100 | 15.5 | > 100 | 3.24 | 21.9 | 6.22 µM | 41.5 µM | 2740 | 38.7 | 4.9 | > 100 | 5000 | 21.5 | 6.76 µM | 77.9
Cc1c(Cl)cccc1NC(=O)c1sc2nc3c(cc2c1N)CCCCCC3 | 0.285 | > 50 | 0.149 | > 50 | 166 | > 50 | 0.791 | > 50 | 1.14 | 25.1 | 0.196 µM | 24.2 µM | 426 | > 50 | 0.3 | > 50 | 195 | > 50 | 0.223 µM | > 50
CN(C)CCNC(=O)c1cc([N+](=O)[O-])ccn1 |  | 26.3 |  | 31.3 |  | > 100 |  | > 100 |  | > 100 |  | 67.5 µM |  | > 100 |  | 96.9 |  | 61.4 |  | 78.1
N#CSCC1CC(O)(c2ccccc2)C(c2ccccc2)C(c2ccc(F)cc2)O1 (centres undefined) | 3.13 | 9.97 | 2.8 | 11.6 | 1670 | 7.03 | 7.24 | 19.4 | 4.89 | 16.1 | 2.69 µM | 7.78 µM | 1690 | 7.6 | 1.64 | 3.18 | 1280 | 2.9 | 3.17 µM | > 37.3
Fc1ccc(-c2nnc3sc(-c4cccc(Cl)c4)nn23)cc1Cl | > 100 | > 100 | > 100 | > 100 | > 100000 | > 100 | > 100 | > 100 | > 100 | > 100 | > 100 µM | > 100 µM | > 100000 | > 100 | > 100 | > 100 | > 100000 | > 100 | > 100 µM | > 100
CC(=O)Oc1cccc2c1C(=O)C(Br)(Br)CCC2 |  | 17.2 |  | 5.71 |  | 7.34 |  | 21.9 |  | 20.1 |  | 21.5 µM |  | 30.6 |  | 6.26 |  | 9.66 |  | 4.61
C=C(CN1CCN(c2ccccc2F)CC1)c1ccc(C(=O)Nc2ccccc2N)cc1 | 2.67 | 11.1 | 0.889 | > 100 | 1160 | 3.78 | 1.29 | > 100 | 2.34 | 17.3 | 8.5 µM | > 100 µM | 571 | 4.96 | 1.53 | 24.4 | 957 | 13.5 | 3.84 µM | > 100
CCOC(=O)C(Cc1c[nH]c2cc([N+](=O)[O-])ccc12)(NC(C)=O)C(=O)OCC | > 1000 | > 1000 |  | > 1000 | 45000 |  | > 833 | > 1000 | > 769 | > 1000 | 36 µM and 168 µM | 97.9 µM and 401 µM | 176000 | > 1000 | > 766 | > 1000 | 390000 | > 1000 | 40.7 µM and 105 µM | > 1000
C#CC[C@H](c1nc2cc(Cl)ccc2c(=O)n1Nc1ccccc1)N(CCCN)C(=O)c1cccc(Cl)c1F | 0.0951 | 0.868 | 0.0337 | 1.36 | 131 | 1.16 | 0.419 | 2.56 | 1.63 | 4.56 | 0.177 µM | 1.29 µM | 979 | 5.8 | 0.325 | 1.84 | 40.3 | 1.3 | 0.484 µM | 1.98
CO/N=C1/NC(=O)/C(=C/c2ccc3ncccc3c2)S1 | > 25 | > 25 | 4.45 | > 25 | > 25000 | > 25 | 6.16 | > 25 | 6.5 | > 25 | 12.1 µM | > 25 µM | 4780 | 15.9 | 12.8 | > 25 | 17400 | > 25 | 4.46 µM | > 20.2
COc1cccc(/C=C/C(=O)c2cc3c(N)c(C(=O)Nc4cccc(Cl)c4C)sc3nc2C)c1 | 1.38 | 3.63 | 0.473 | > 24.8 | 257 | 1.57 | 1.22 | 3.44 | 0.983 | 2.53 | 1.64 µM | 12.9 µM | 832 | 1.85 | 0.676 | 1.45 | 605 | 1.42 | 1.52 µM | 7.82
CN(/N=N/c1nc(OCc2ccccc2)c2[nH]cnc2n1)C(=O)N(C)/N=N/c1nc(OCc2ccccc2)c2[nH]cnc2n1 | 37.5 | > 100 | 43 | > 100 | 38100 | > 100 | 63.7 | > 100 | 38.5 | > 100 | 65.3 µM | > 100 µM | 34900 | > 100 | 37 | > 100 | 35200 | > 100 | 39.6 µM | > 100
COc1ccc(C2=C(c3cn(C)c4ccccc34)C(=O)NC2=O)cc1OC | 5.57 | > 20.3 | 5.75 | > 25 | 9610 | > 25 | > 25 | > 25 | 10.8 | > 25 | 6.18 µM | > 18.6 µM | 7990 | > 25 | 8.12 | > 25 | 6680 | > 25 | 7.21 µM | > 25
COc1cc(-c2cn(-c3ccc(Cl)cc3)c(=O)[nH]2)cc(OC)c1OC | > 100 | > 100 | > 100 | > 100 | > 100000 | > 100 | > 100 | > 100 | > 100 | > 100 | > 100 µM | > 100 µM | > 100000 | > 100 | > 100 | > 100 | > 100000 | > 100 | > 100 µM | > 100
COC[C@H]1OC(=O)c2coc3c2[C@@]1(C)C1=C(C3=O)[C@@H]2CCC(=O)[C@@]2(C)C[C@H]1OC(C)=O |  | > 31.6 |  | > 100 |  | > 63.6 |  | > 100 | 11 | > 100 |  | 16.6 µM |  | 19.3 |  | 53.8 |  | > 100 |  | > 46.2

— PubChem BioAssay (NCI)
